The record followed here is ChEMBL document CHEMBL3507680, “University of Dundee, Gates Library screen for HepG2 cell viability”.

This data set can be described thus: Human HepG2 cell viability assay in 384 well format. Details: dose 125 nL, time 70.5 hour; concentration not given beside the values. The following applies: HepG2 cells, read-out: Inhibition. In kind it is toxicity, cell-based.

Structures are written as SMILES.

Consider `CC(C)C1CCN(C(=O)NCC(=O)N(C)CC(F)(F)F)CC1`, for which the cytotoxicity at 70.5 h stood at 20.8%.

Consider `COCCC(=O)NC(C)(C(N)=O)c1cccc(Cl)c1` (stereo not given), for which the cytotoxicity at 70.5 h was -3.41%.

As for `CSCc1cc(F)ccc1CNCc1ncc[nH]1`, the cytotoxicity at 70.5 h is -8.53%.

In the case of `CSCc1cc(F)ccc1CNCc1cccc(O)c1`, the cytotoxicity at 70.5 h is -5.38%.

In the case of `CSc1[nH]c(=O)c(C(=O)N2CCCC2C2CCCC2)cc1C#N` (stereo not given), the cytotoxicity at 70.5 h was -5.31%.

As to `CN(CC(F)(F)F)C(=O)CNC(=O)N1CCCC(N(C)C)C1` (stereo not given), the cytotoxicity at 70.5 h is -8.19%.

Regarding `CC1COCCN1Cc1nc(Cc2ccccc2)no1` (stereo not given), the cytotoxicity at 70.5 h was -8.66%.

For `O=C(NC1CCN(C(=O)C2CCCCC2)C1)c1ccncc1Cl` (stereo not given), the cytotoxicity at 70.5 h is -9.33%.

Turning to `Cn1cnnc1C1CCCN(C(=O)c2cc(C3CC3)on2)C1` (stereo not given), the cytotoxicity at 70.5 h is -10.9%.

As for `FC(F)(F)c1cccc(C2(CNCc3ccncc3)CCOCC2)c1`, the cytotoxicity at 70.5 h was 6.55%.

Take `CNS(=O)(=O)c1cccc(C(C)NCc2nccn2C(C)C)c1` (stereo not given): the cytotoxicity at 70.5 h is 10.8%.

`CC(C)OCCCN1CCCC(c2nc3ccccc3n2C(C)C)C1` (stereo not given): the cytotoxicity at 70.5 h is 13.2%.

Consider `Cc1cc(C(N)=O)ccc1NC(=O)c1nc(N2CCCC2)ncc1Cl`, for which the cytotoxicity at 70.5 h was -4.63%.

As to `NCC1(c2cccc(C(F)(F)F)c2)CCOCC1`, the cytotoxicity at 70.5 h is -3.44%.

For `NS(=O)(=O)CCNC(=O)c1nnn(-c2ccc(F)cc2)c1C1CC1`, the cytotoxicity at 70.5 h was -2.85%.

Take `CN1CCCC1CNC(=O)c1nnn(-c2ccc(F)cc2)c1C1CC1` (stereo not given): the cytotoxicity at 70.5 h is 22.3%.

In the case of `NS(=O)(=O)CCNC(=O)c1nnn(-c2ccccc2)c1C1CC1`, the cytotoxicity at 70.5 h was -2.47%.

Turning to `COc1ccc(C2CCCN2C(=O)c2cc3c([nH]c2=O)CCC3)cc1` (stereo not given), the cytotoxicity at 70.5 h was -2.02%.

In the case of `COc1cccc(C2CCCN2C(=O)c2cc3c([nH]c2=O)CCC3)c1` (stereo not given), the cytotoxicity at 70.5 h is -2.15%.

With `CNC(=O)c1cnc(/C=C/c2cc(OC)c(OC)c(OC)c2)s1`, the cytotoxicity at 70.5 h amounted to 3.41%.

Take `CNC(=O)c1cnc(/C=C/c2cc(OC)cc(OC)c2)s1`: the cytotoxicity at 70.5 h amounted to 17.6%.

`COc1ccc(NC(C)=O)c(N2CCN(C(C)=O)CC2)n1`: the cytotoxicity at 70.5 h was -0.156%.

For `CCS(=O)(=O)N(C)C1CCN(C(=O)c2cccc(Cl)c2)CC1`, the cytotoxicity at 70.5 h is -4.92%.

On to `Cc1csc(NC(=O)CN(C)CC2CCCN2c2cccnn2)n1` (stereo not given), for which the cytotoxicity at 70.5 h turned out to be 3.61%.

With `CCc1nc(CCNC(=O)NC2CC2)sc1C`, the cytotoxicity at 70.5 h was found to be 5.49%.

Turning to `COC(=O)C1CCN(c2cncc(-n3nc(C)cc3C)n2)CC1`, the cytotoxicity at 70.5 h worked out at 2.18%.

`Cc1cc(CN2CCc3nn(C(C)C)c(=O)cc3C2)no1`: the cytotoxicity at 70.5 h came to 5.97%.

Take `COCc1nc2cc(NCc3ccncc3)ccc2o1`: the cytotoxicity at 70.5 h amounted to 16.6%.

Take `CC(CNC(=O)N1CCSCC1)Cc1cccs1` (stereo not given): the cytotoxicity at 70.5 h came out at 4.95%.

For the compound `COCc1nc2cc(NCc3ccc(C)o3)ccc2o1`, the cytotoxicity at 70.5 h was determined as 0.17%.

Regarding `CC(C)CCN1CCN(Cc2nc(C3CC3)no2)CC1`, the cytotoxicity at 70.5 h came out at 20.6%.

On to `CCN1CCC(CNCc2cc(OC)ccc2OC)C1` (stereo not given), for which the cytotoxicity at 70.5 h came out at 5.64%.

Regarding `COCCN1CCN(C(C)C(=O)Nc2ccnn2C(C)C)CC1` (stereo not given), the cytotoxicity at 70.5 h stood at 1.69%.

For `CCc1nc(CCNC(=O)C2CCOC2)sc1C` (stereo not given), the cytotoxicity at 70.5 h is -2.78%.

As for `CC(CNC(=O)N1CCN(c2cnccn2)CC1)Cc1cccs1` (stereo not given), the cytotoxicity at 70.5 h is -4.18%.

Take `Cc1cc(F)ccc1CN1CCCC2(C1)OCCO2`: the cytotoxicity at 70.5 h was -3.36%.

In the case of `COc1ccc(CNCC2CC2)cc1F`, the cytotoxicity at 70.5 h was -7.42%.

For the compound `COc1cccc(CN(C)C(=O)CN2CCN(CCO)CC2)c1`, the cytotoxicity at 70.5 h is -7.48%.

`COc1cccc(CN(C)C(=O)CN2CCN(c3nccn3C)CC2)c1`: the cytotoxicity at 70.5 h is -6.12%.

Take `CC1CCN(C(CNC(=O)CCn2cccn2)c2cccs2)CC1` (stereo not given): the cytotoxicity at 70.5 h is -1.29%.

On to `Cc1ccc(CNCc2nnc3n2CCCC3C(F)(F)F)o1` (stereo not given), for which the cytotoxicity at 70.5 h came to 6.51%.

`O=c1oc(-c2cccs2)nn1CC(O)c1ccc(F)cc1` (stereo not given): the cytotoxicity at 70.5 h was -11.2%.

For `NC(=O)C1CCCN1Cc1cccc(NC(=O)c2ccsc2)c1` (stereo not given), the cytotoxicity at 70.5 h is -11.3%.

Turning to `CCOc1ncccc1CNC(=O)N1CCCC1c1cc(C)no1` (stereo not given), the cytotoxicity at 70.5 h is -12.6%.

Consider `CCSCCC(=O)Nc1ncn(Cc2cccnc2)n1`, for which the cytotoxicity at 70.5 h was -9.89%.

Take `CCC(C)NC(=O)c1ccccc1-n1cnnn1` (stereo not given): the cytotoxicity at 70.5 h was -11.4%.

`COc1ccc(-n2cnnc2SCCC#N)cn1`: the cytotoxicity at 70.5 h was -4.7%.

For `CN(C)CCCNC(=O)c1cc(Br)c2c(c1)OCCO2`, the cytotoxicity at 70.5 h was -7.25%.

For `CCc1nc(CNC(=O)Nc2ccc(C(=O)NC)cc2C)cs1`, the cytotoxicity at 70.5 h was -22.3%.

For `O=C(NC1(c2nnn(CCO)n2)CCCC1)c1ccccc1`, the cytotoxicity at 70.5 h is -1.16%.

As to `CN(CCNC(=O)N1CCN(Cc2ccon2)CC1)C1CCCC1`, the cytotoxicity at 70.5 h was -1.48%.

With `CC(NC(=O)NCCCn1cccn1)c1cccnc1` (stereo not given), the cytotoxicity at 70.5 h amounted to 18.1%.

Consider `COC(=O)CCN1CCCC1c1cccc2c1OCCO2` (stereo not given), for which the cytotoxicity at 70.5 h is -6.05%.

As for `Cc1cc(CN(C)C2CCCN(c3cccnn3)C2)on1` (stereo not given), the cytotoxicity at 70.5 h turned out to be 28.9%.

Regarding `CC(C)N(C)CC(=O)NC1CCc2nccn2C1` (stereo not given), the cytotoxicity at 70.5 h is 17.3%.

For the compound `COCCc1noc(CN(C)C2CCCN(c3ccc(C)nn3)C2)n1` (stereo not given), the cytotoxicity at 70.5 h came out at 24.4%.

In the case of `Cc1cnn(C2CN(CC(O)c3ccc(F)cc3)C2)c1` (stereo not given), the cytotoxicity at 70.5 h is -5.26%.

In the case of `COc1cccc(S(=O)(=O)CCN2CCCCC2)c1`, the cytotoxicity at 70.5 h is -15.7%.

For `O=C(NCCc1csc(N2CCCC2)n1)N(C1CCCC1)C1CC1`, the cytotoxicity at 70.5 h was -2.69%.

As to `Cc1ccc2ncnc(N3CCOCC3c3c(C)nn(C)c3C)c2c1` (stereo not given), the cytotoxicity at 70.5 h is -11.7%.

In the case of `CCN(CC1CN(Cc2ncc[nH]2)CCO1)c1cccnn1` (stereo not given), the cytotoxicity at 70.5 h was -6.7%.

Turning to `O=C(C1CC(=O)N(c2ccccc2Br)C1)N1CCC2(CC1)OCCO2` (stereo not given), the cytotoxicity at 70.5 h is -6.47%.

On to `CCOC1CCN(C(=O)c2c(Cl)c3ccccc3n2C)CC1`, for which the cytotoxicity at 70.5 h was -7.26%.

For the compound `Cc1ccsc1CNC(=O)NC1CCCc2c1cnn2CCO` (stereo not given), the cytotoxicity at 70.5 h was -6.7%.

Take `CCS(=O)(=O)c1ccc(N2CCC(NC(=O)c3cnn(C)c3)CC2)cc1`: the cytotoxicity at 70.5 h is -4.33%.

As to `O=C(NCC(F)(F)F)NC1CCCc2c1cnn2CCO` (stereo not given), the cytotoxicity at 70.5 h is -8.96%.

As to `CC(C)Oc1ccc(CSc2nnc(CN3CCCC3=O)o2)cc1`, the cytotoxicity at 70.5 h is -7.62%.

On to `CC(O)CN1CCN(C(=O)c2cnn(-c3ccccc3F)c2)CC1` (stereo not given), for which the cytotoxicity at 70.5 h is -6.92%.

Regarding `Cc1nn(CCO)c(C)c1CNC1CCC(C)(C)c2ccccc21` (stereo not given), the cytotoxicity at 70.5 h was -5.72%.

Regarding `CCCC(NC(=O)c1cc(C)n(C2CC2)c1C)c1nnn[nH]1` (stereo not given), the cytotoxicity at 70.5 h is -0.607%.

`c1csc(COC[C@H]2CCC[C@]23CN(Cc2ccoc2)CCO3)n1`: the cytotoxicity at 70.5 h was -9.63%.

With `COCCO[C@H]1CCN(C(=O)c2ccsc2)[C@H]1Cc1cnn(C)c1`, the cytotoxicity at 70.5 h is -11.9%.

For the compound `Cc1cc(S(=O)(=O)NC(C)(C)CN)c(F)cc1F`, the cytotoxicity at 70.5 h was -9.88%.

With `COC[C@H]1CC[C@@H]2[C@@H](CCN2Cc2ccccn2)O1`, the cytotoxicity at 70.5 h came out at 22.1%.

With `O=C(c1cnc2n1CCN(Cc1ccccc1)C2)N1CCCC1`, the cytotoxicity at 70.5 h was -9.37%.
